# Data as given in patent US4448730A, “Hydroxybenzohydroxamic acids, benzamides and esters and related compounds as ribonucleotide reductase inhibitors” (priority 1982, dated 1984).
# Where two headings read alike, the source gives them in different places.
# Assays:
# ribonucleotide reductase = biological target: T1, ribonucleotide reductase (Rattus norvegicus, UniProt Q4KLN6); assay: Inhibition of ribonucleotide reductase (conversion of CDP to dCDP), enzyme partially purified from Novikoff hepatoma; format: biochemical; conditions: for IC50: CDP to dCDP, 40 min at 30° C, pH 7.5, enzyme from Novikoff hepatoma, read-out: ID50 (inhibitory dose which inhibits ribonucleotide reductase by 50%); for Inhibitory Potency for ribonucleotide reductase: relative to hydroxyurea, given an arbitrary value of 1.0
# T1 construct: partially purified from Novikoff hepatoma; from tissue; host or cells: Novikoff hepatoma (rat tumour), partially purified enzyme
# T1 sequence (Q4KLN6 1-390): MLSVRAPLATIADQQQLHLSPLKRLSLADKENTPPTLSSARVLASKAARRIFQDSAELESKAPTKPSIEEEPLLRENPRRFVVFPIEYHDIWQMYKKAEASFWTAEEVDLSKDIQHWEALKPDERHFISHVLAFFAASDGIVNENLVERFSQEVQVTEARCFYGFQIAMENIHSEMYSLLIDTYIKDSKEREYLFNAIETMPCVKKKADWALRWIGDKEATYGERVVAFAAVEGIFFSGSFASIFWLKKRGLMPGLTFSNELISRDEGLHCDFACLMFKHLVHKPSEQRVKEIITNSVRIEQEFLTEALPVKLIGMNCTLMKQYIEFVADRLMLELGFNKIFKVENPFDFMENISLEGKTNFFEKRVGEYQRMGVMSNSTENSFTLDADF
# Excerpt: (§1) Table 2 gives ribonucleotide reductase data for certain compounds of formula I. In the table, column 1 gives the substitution pattern in the benzene ring, column 2, the R^1 group, column 3, the ID50 (inhibitory dose in micromolar concentration which inhibits ribonucleotide reductase by 50%), column 4, the average percent (± standard error) increase in the life span (ILS) of 8 treated mice inoculated with L1210 leukemia compared with 8 control mice also inoculated with L1210. The daily dose level of the drug which was administered for 8 days is indicated in column 5. Table 3 gives the relative potency of the compounds represented by formula I above as inhibitors of ribonucleotide reductase compared to hydroxyurea whose potency was given an arbitrary value of 1.0. In table 3, column 1 gives the name of the compound and column 2 the relative inhibitory potency of each of the compounds of column 1.
# In the above determination of ID50 's in Table 3, ribonucleotide reductase is partially purified from Novikoff hepatoma by a procedure similar to that set forth by Elford et al. J. Biol. Chem. 245, 5228 (1970). The activity of the enzyme was measured by a slightly modified assay procedure originally developed by Reichard et al. id, 236, 1150 […]. This procedure measures the conversion of CDP to dCDP. The assay mixture (0.34 ml.) contains 3 μCi of [^3 H] CDP (specific activity […]), 3.3 μmole ATP, 5.9 μmoles magnesium chloride, 8.8 μmoles Hepes buffer at pH=7.5, 15 μmoles dithiothreitol and enzyme protein between 0.4 and 1.3 mg. Incubation was provided for forty minutes at 30° C. Ion exchange chromatography employing Dowex 50 (H^+) resin is used to separate the product from the substrate. The inhibitors were dissolved in water and a mixture of water and up to 1 % ethanol or 2% dimethylsulfoxide, neither one of which inhibited the enzyme at these concentrations. Each inhibitor was tested at a minimum of three concentrations and the active compounds reassayed at least one additional time. ID50 's in μmoles were estimated from graphs summarizing results for each compound.
# L1210 leukemia = L1210 leukemia in mice, increase in life span (Table 2); format: in vivo; conditions: Mus musculus, L1210, 192 h, read-out: ILS, average percent (± standard error) increase in life span; for ILS at 200 mg/kg: 200 mg/kg daily for 8 days; for ILS at 500 mg/kg: 500 mg/kg daily for 8 days
# Excerpt: As stated above, the compounds represented by formula I above have the ability to inhibit ribonucleotide reductase, an enzyme involved in the reductive conversion of ribonucleotides to deoxyribonucleotides. This enzymatic reaction is a rate controlling step in the biosynthetic pathway leading to DNA and cell replication. In general, the ribonucleotide reductase level is closely correlated with cellular replication.
# as §1
# CA-755 adenocarcinoma = assay: Activity vs. CA-755 adenocarcinoma (Table 7); format: in vivo, mice; conditions: once or twice daily for 9-10 days
# Experimental: (§2) All compounds were administered once or twice daily for 9-10 days starting 24 hours after inoculation with the tumor.
# L-5563 lymphoma = assay: Activity vs. L-5563 lymphoma (Table 6); conditions: once or twice daily for 9-10 days
# Experimental: as §2
# L-1210 Leukemia [1] = format: in vivo, mice
# Experimental: In a series of studies against L-1210 leukemia, in addition to those studies set forth in Table 2 and 4, 3,4-dihydroxybenzohydroxamic acid gave the following increases in survival times at the dose levels specified. Drug was administered daily for nine days.
# Similar data for 3,4,5-trihydroxybenzohydroxamic acid are as follows: […]
# Lewis Lung = assay: Activity vs. Lewis Lung (Table 5); format: in vivo, mice; conditions: once or twice daily for 9-10 days
# Experimental: as §2
# L-1210 Leukemia [2] = format: in vivo, mice; conditions: once or twice daily for 9-10 days
# Experimental: as §2
# L-1210 Leukemia [3] = format: in vivo, mice; remark: listed apart in the source
# Excerpt: The above data clearly show the enhanced anti-tumor activity of trihydroxybenzohydroxamic acid where the hydroxy groups are vicinal but no hydroxyl is ortho. Similar data are available for the vicinal dihydroxybenzohydroxamic acids with and without an ortho-hydroxy substituent in an L-1210 leukemic test in mice as follows: […]
# [4] = Biochemical Pharmacology 1971; cited from earlier work
# L-1210 Leukemia [5] = assay: Direct side-by-side comparison with L-1210 leukemia; format: in vivo, mice
# Excerpt: In a direct side-by-side comparison with L-1210 leukemia, the following results were obtained.
# [6] = system: DNA synthesis in Ehrlich ascites tumor cells; conditions: cited from earlier work; for inhibition of / selectivity against DNA synthesis (in words) / selectivity against DNA synthesis (in words): Gale and Hynes 1968; for inhibition of / selectivity against DNA synthesis (in words): in vitro; for selectivity against DNA synthesis (in words): only after exposure of the cells for 1-2 hours
# P388 Leukemia = assay: Activity vs. P388 Leukemia (Table 8); format: in vivo, mice; conditions: once or twice daily for 9-10 days
# Experimental: as §2
compound,measurement,setting,value
"NC(=O)c1ccc(O)c(O)c1O [2,3,4-trihydroxybenzamide]",IC50,ribonucleotide reductase,5 µM
same,Inhibitory Potency for ribonucleotide reductase,ribonucleotide reductase,100
same,ILS at 200 mg/kg,L1210 leukemia,48 ± 7%
"O=C(NO)c1ccc(O)c(O)c1O [2,3,4-trihydroxybenzohydroxamic acid]",% inhibition,CA-755 adenocarcinoma; 25-50 mg/kg,12-18%
same,toxic (in column % inhibition),L-5563 lymphoma; 25-50 mg/kg,toxic
same,% increase in survival,L-1210 Leukemia [1]; 25 mg/kg daily for nine days,10%
same,% increase in survival,L-1210 Leukemia [1]; 50 mg/kg daily for nine days,8%
same,% increase in survival,L-1210 Leukemia [1]; 100 mg/kg daily for nine days,16%
same,IC50,ribonucleotide reductase,3.5 µM
same,Inhibitory Potency for ribonucleotide reductase,ribonucleotide reductase,140
same,% tumor inhibition,Lewis Lung; 25-50 mg/kg,13-14%
same,ILS at 125 mg/kg,L1210 leukemia; 125 mg/kg daily for 8 days,30 ± 7%
same,% increase in survival time,L-1210 Leukemia [2]; 25-50 mg/kg,17-21%
"O=C(NO)c1cccc(O)c1O [2,3-dihydroxybenzohydroxamic acid]",% increase in survival time,L-1210 Leukemia [3]; 300 mg/kg,about 0%
same,% increase in survival time,L-1210 Leukemia [3]; 450 mg/kg,about 0%
same,antimitogenic activity (in words),[4],most active compounds tested
same,IC50,ribonucleotide reductase,8 µM
same,Inhibitory Potency for ribonucleotide reductase,ribonucleotide reductase,63
same,% increase in survival time,L-1210 Leukemia [5]; 125 mg/kg,0%
same,% increase in survival time,L-1210 Leukemia [5]; 250 mg/kg,16%
same,ILS at 200 mg/kg,L1210 leukemia,36 ± 11%
same,inhibition of / selectivity against DNA synthesis (in words),[6],marked selectivity against DNA synthesis with a greater inhibition than that produced by salicylhydroxamic acid
"O=C(NO)c1ccc(O)cc1O [2,4-dihydroxybenzohydroxamic acid]",IC50,ribonucleotide reductase,250 µM
same,Inhibitory Potency for ribonucleotide reductase,ribonucleotide reductase,2.0
same,ILS at 500 mg/kg,L1210 leukemia,42 ± 7%
"O=C(NO)c1cc(O)ccc1O [2,5-dihydroxybenzohydroxamic acid]",IC50,ribonucleotide reductase,200 µM
same,Inhibitory Potency for ribonucleotide reductase,ribonucleotide reductase,2.5
same,ILS at 300 mg/kg,L1210 leukemia; 300 mg/kg daily for 8 days,30 ± 14%
"O=C(NO)c1c(O)cccc1O [2,6-dihydroxybenzohydroxamic acid]",IC50,ribonucleotide reductase,100 µM
same,Inhibitory Potency for ribonucleotide reductase,ribonucleotide reductase,5.0
same,ILS at 88 mg/kg,L1210 leukemia; 88 mg/kg daily for 8 days,23 ± 11%
Nc1ccc(C(=O)NO)c(O)c1 [2-hydroxy-4-aminobenzoyl compound],antimitogenic activity (in words),[4],inactive
"CNC(=O)c1cc(O)c(O)c(O)c1 [3,4,5 NHCH3]",IC50,ribonucleotide reductase,25 µM
same,ILS at 500 mg/kg,L1210 leukemia,60 ± 29%
"NC(=O)c1cc(O)c(O)c(O)c1 [3,4,5-trihydroxybenzamide]",% inhibition,CA-755 adenocarcinoma; 200 mg/kg,38%
same,toxic (in column % inhibition),L-5563 lymphoma; 200 mg/kg,toxic
same,IC50,ribonucleotide reductase,10 µM
same,Inhibitory Potency for ribonucleotide reductase,ribonucleotide reductase,50
same,% tumor inhibition,Lewis Lung; 200 mg/kg,21%
same,ILS at 250 mg/kg,L1210 leukemia; 250 mg/kg daily for 8 days,42 ± 5%
same,% Prolongation,P388 Leukemia; 175 mg/kg,43%
same,% Prolongation,P388 Leukemia; 200 mg/kg,40%
same,% Prolongation,P388 Leukemia; 225 mg/kg,55%
same,% increase in survival time,L-1210 Leukemia [2]; 150 mg/kg,50%
same,% increase in survival time,L-1210 Leukemia [2]; 175 mg/kg,55%
same,% increase in survival time,L-1210 Leukemia [2]; 225 mg/kg,10%
"NC(=O)c1ccc(O)c(O)c1 [3,4-dihydroxybenzamide]",IC50,ribonucleotide reductase,50 µM
same,Inhibitory Potency for ribonucleotide reductase,ribonucleotide reductase,10
same,ILS at 1200 mg/kg,L1210 leukemia; 1200 mg/kg daily for 8 days,35 ± 11%
"O=C(Cc1ccc(O)c(O)c1)NO [3,4-dihydroxyphenylacetohydroxamic acid]",% increase in survival time,L-1210 Leukemia [2]; 606 mg/kg,57%
"Nc1cc(N)cc(C(=O)NO)c1 [3,5-Diaminobenzohydroxamic acid]",selectivity against DNA synthesis (in words),[6],relative selectivity against DNA synthesis
"O=C(NO)c1cc(O)cc(O)c1 [3,5-dihydroxybenzohydroxamic acid]",IC50,ribonucleotide reductase,400 µM
same,Inhibitory Potency for ribonucleotide reductase,ribonucleotide reductase,1.2
same,ILS at 1000 mg/kg,L1210 leukemia; 1000 mg/kg daily for 8 days,52 ± 22%
"CC(C)c1cc(C(=O)NO)c(O)c(C(C)C)c1 [3,5-diisopropylsalicylhydroxamic acid]","inhibition of DNA synthesis, rank in words","[6]; Gale, Hynes and Smith 1970",most active compound
Nc1ccc(C(=O)NO)cc1 [4-aminobenzohydroxamic acid],antimitogenic activity (in words),[4],inactive
same,selectivity against DNA synthesis (in words),[6],relative selectivity against DNA synthesis
NC(=O)c1ccccc1 [benzamide],inhibition of / selectivity against DNA synthesis (in words),[6],totally inactive
"NC(=O)NO [hydroxyurea, reference compound]",% inhibition,CA-755 adenocarcinoma; 71 mg/kg,27%
same,% inhibition,CA-755 adenocarcinoma; 200 mg/kg,26%
same,% tumor inhibition,Lewis Lung; 71 mg/kg,27%
same,% tumor inhibition,Lewis Lung; 400 mg/kg,44%
same,% increase in survival time,L-1210 Leukemia [2]; 30 mg/kg,27%
same,% increase in survival time,L-1210 Leukemia [2]; 40 mg/kg,27%
same,% increase in survival time,L-1210 Leukemia [2]; 60 mg/kg,92%
same,% increase in survival time,L-1210 Leukemia [2]; 71 mg/kg,58%
"O=C(Oc1ccccc1)c1cc(O)c(O)c(O)c1 [phenyl 3,4,5-trihydroxybenzoate]",% inhibition,CA-755 adenocarcinoma; 100 mg/kg,27%
same,% inhibition,CA-755 adenocarcinoma; 200 mg/kg,11%
same,% inhibition,L-5563 lymphoma; 200 mg/kg,19%
same,Inhibitory Potency for ribonucleotide reductase,ribonucleotide reductase,33
same,% tumor inhibition,Lewis Lung; 50 mg/kg,2%
same,% tumor inhibition,Lewis Lung; 200 mg/kg,14%
same,% increase in survival time,L-1210 Leukemia [2]; 200 mg/kg,56%
